The values below come from patent US20240228482A1, “COMPOUNDS, COMPOSITIONS AND METHODS OF TREATING CANCER” (HOTSPOT THERAPEUTICS, INC., priority 2021, published 2024).

Read-outs that look alike come from different tables or passages of the source.

For the experiment, the target named is T1, CBL-B (Homo sapiens, UniProt Q13191).
T1 construct: GST
As to the kind of experiment: CBL-B TR-FRET IC50 screening (E1/E2 ubiquitination, Biotin-Ubiquitin, Anti GST-Tb donor / Streptavidin-d2 acceptor). It is filed as biochemical.

The mark [1] stands for this setting: CBL-B 10 nM final, 11-point titration from 100 uM, binned A-F, read-out: CBL-B TR-FRET activity IC50.
[2] abbreviates: second part of Table 2 (head 'Patent Cmpd No / Updated Activity'), same CBL-B TR-FRET IC50 bins A-F, read-out: Updated Activity.

T1 sequence (Q13191 whole entry): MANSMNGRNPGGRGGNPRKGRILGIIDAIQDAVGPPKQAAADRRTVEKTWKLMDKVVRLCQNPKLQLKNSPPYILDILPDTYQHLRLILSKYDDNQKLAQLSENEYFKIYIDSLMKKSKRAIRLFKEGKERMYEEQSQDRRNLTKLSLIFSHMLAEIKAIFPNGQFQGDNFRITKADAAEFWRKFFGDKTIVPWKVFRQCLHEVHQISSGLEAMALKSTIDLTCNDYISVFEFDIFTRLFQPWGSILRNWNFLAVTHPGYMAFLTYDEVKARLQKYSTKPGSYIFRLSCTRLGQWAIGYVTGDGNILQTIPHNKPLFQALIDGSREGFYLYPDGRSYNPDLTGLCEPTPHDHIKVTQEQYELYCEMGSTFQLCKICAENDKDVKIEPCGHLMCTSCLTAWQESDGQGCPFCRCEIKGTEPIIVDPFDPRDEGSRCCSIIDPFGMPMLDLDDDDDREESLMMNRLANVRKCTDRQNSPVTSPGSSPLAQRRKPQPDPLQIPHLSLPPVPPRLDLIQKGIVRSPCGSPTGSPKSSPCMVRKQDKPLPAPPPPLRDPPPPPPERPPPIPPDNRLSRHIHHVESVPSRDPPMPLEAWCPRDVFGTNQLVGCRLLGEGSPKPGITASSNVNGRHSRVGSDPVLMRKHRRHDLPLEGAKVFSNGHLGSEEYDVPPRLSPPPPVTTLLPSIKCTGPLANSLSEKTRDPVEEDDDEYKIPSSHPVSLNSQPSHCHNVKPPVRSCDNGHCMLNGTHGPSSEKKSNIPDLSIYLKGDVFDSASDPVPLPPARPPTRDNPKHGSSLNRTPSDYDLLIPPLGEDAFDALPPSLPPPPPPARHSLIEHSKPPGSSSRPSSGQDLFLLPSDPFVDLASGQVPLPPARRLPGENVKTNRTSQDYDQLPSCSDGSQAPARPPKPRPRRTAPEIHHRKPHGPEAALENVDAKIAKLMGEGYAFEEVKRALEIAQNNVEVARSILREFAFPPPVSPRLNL

`C[C@H]1CCCN(Cc2cc(C(F)(F)F)c3cn(-c4cccc([C@@H](c5nccs5)C5CCC5)c4)c(=O)n3c2)C1` (single isomer, unassigned) [Compound 305]: the IC50 under setting [1] was more than 10 µM. As for `C[C@H]1CCCN(Cc2cc(C(F)(F)F)c3cn(-c4cccc([C@H](c5nccs5)C5CCC5)c4)c(=O)n3c2)C1` (single isomer, unassigned) [Compound 306], the IC50 under setting [1] is more than 10 µM. On the same count and under the same terms, the same measure for `Cn1cnnc1[C@]1(c2cccc(-n3cc4c(C(F)(F)F)cc(CN5CCc6ncsc6C5)cn4c3=O)c2)C[C@H](C)C1` (single isomer, unassigned) [Compound 308]: less than 0.1 µM; for `Cn1cnnc1[C@]1(c2cccc(-n3cc4c(C(F)(F)F)cc(CN5CCc6ncsc6C5)cn4c3=O)c2)C[C@@H](C)C1` (single isomer, unassigned) [Compound 309]: 0.1 to 0.3 µM; for `CO[C@H]1C[C@](c2cccc(-n3cc4c(C(F)(F)F)cc(CN5CCC[C@H](C)C5)cn4c3=O)c2)(c2nncn2C)C1` (single isomer, unassigned) [Compound 319]: less than 0.1 µM. Regarding `COCCn1cc(C)c([C@@H](c2cccc(-n3cc4c(C(F)(F)F)cc(CN5CCC[C@H](C)C5)cn4c3=O)c2)C2CCC2)n1` (single isomer, unassigned) [Compound 335], under setting [1], the IC50 was more than 10 µM. Take `COCCn1cc(C)c([C@H](c2cccc(-n3cc4c(C(F)(F)F)cc(CN5CCC[C@H](C)C5)cn4c3=O)c2)C2CCC2)n1` (single isomer, unassigned) [Compound 336]: under setting [1], the IC50 was more than 10 µM. The same measure, in the same setting: the same measure for `C[C@H]1CCCN(Cc2cc(C(F)(F)F)c3cn(-c4cccc([C@@H](c5nncn5C)C5CC(F)(F)C5)c4)c(=O)n3c2)C1` (single isomer, unassigned) [Compound 342]: more than 10 µM; for `C[C@H]1CCCN(Cc2cc(C(F)(F)F)c3cn(-c4cccc([C@H](c5nncn5C)C5CC(F)(F)C5)c4)c(=O)n3c2)C1` (single isomer, unassigned) [Compound 343]: 0.1 to 0.3 µM.

`C[C@H]1CCCN(Cc2cc(C(F)(F)F)c3cn(-c4cccc([C@@H](c5nncn5C)[C@H]5C[C@@H](CO)C5)c4)c(=O)n3c2)C1` (single isomer, unassigned) [Compound 353]: the IC50 under setting [1] was more than 10 µM. With `C[C@H]1CCCN(Cc2cc(C(F)(F)F)c3cn(-c4cccc([C@H](c5nncn5C)[C@H]5C[C@H](CO)C5)c4)c(=O)n3c2)C1` (single isomer, unassigned) [Compound 354], the IC50 under setting [1] is 0.301 to 1 µM. Same read-out and setting: in the case of `C[C@H]1CCCN(Cc2cc(C(F)(F)F)c3cn(-c4cccc([C@@H](c5nncn5C)[C@H]5C[C@H](CO)C5)c4)c(=O)n3c2)C1` (single isomer, unassigned) [Compound 355] it was more than 10 µM. Turning to `C[C@H]1CCCN(Cc2cc(C(F)(F)F)c3cn(-c4cccc([C@H](c5nncn5C)[C@H]5C[C@@H](CO)C5)c4)c(=O)n3c2)C1` (single isomer, unassigned) [Compound 356], the IC50 under setting [1] is less than 0.1 µM. As for `C[C@H]1CCCN(Cc2cc(C(F)(F)F)c3cn(-c4cccc([C@H](c5nncn5C)C5CCOCC5)c4)c(=O)n3c2)C1` (single isomer, unassigned) [Compound 358], the IC50 under setting [1] is more than 10 µM. Same read-out and setting: in the case of `C[C@H]1CCCN(Cc2cc(C(F)(F)F)c3cn(-c4cccc([C@@H](c5nncn5C)C5CCOCC5)c4)c(=O)n3c2)C1` (single isomer, unassigned) [Compound 359] it was more than 10 µM; in that of `Cc1cn(CCO)nc1[C@@H](c1cccc(-n2cc3c(C(F)(F)F)cc(CN4CCC[C@H](C)C4)cn3c2=O)c1)C1CCC1` (single isomer, unassigned) [Compound 360], more than 10 µM. Turning to `Cc1cn(CCO)nc1[C@H](c1cccc(-n2cc3c(C(F)(F)F)cc(CN4CCC[C@H](C)C4)cn3c2=O)c1)C1CCC1` (single isomer, unassigned) [Compound 361], the IC50 under setting [1] was more than 10 µM. Same read-out and setting: the same measure for `COC1(C[C@@H](c2cccc(-n3cc4c(C(F)(F)F)cc(CN5CCC[C@H](C)C5)cn4c3=O)c2)c2nncn2C)CC1` (single isomer, unassigned) [Compound 365]: 1 to 3 µM; for `COC1(C[C@H](c2cccc(-n3cc4c(C(F)(F)F)cc(CN5CCC[C@H](C)C5)cn4c3=O)c2)c2nncn2C)CC1` (single isomer, unassigned) [Compound 366]: more than 10 µM; for `C[C@H]1CCCN(Cc2cc(C(F)(F)F)c3cn(-c4cccc([C@H](c5nncn5C)N5CCC5)c4)c(=O)n3c2)C1` (single isomer, unassigned) [Compound 367]: 3 to 10 µM. For the compound `C[C@H]1CCCN(Cc2cc(C(F)(F)F)c3cn(-c4cccc([C@@H](c5nncn5C)N5CCC5)c4)c(=O)n3c2)C1` (single isomer, unassigned) [Compound 368], the IC50 under setting [1] was less than 0.1 µM. On the same count and under the same terms, the same measure for `Cc1sc(C#N)nc1[C@@H](c1cccc(-n2cc3c(C(F)(F)F)cc(CN4CCC[C@H](C)C4)cn3c2=O)c1)C1CCC1` (single isomer, unassigned) [Compound 369]: more than 10 µM. Regarding `C[C@H]1CCCN(Cc2cc(C(F)(F)F)c3cn(-c4cccc([C@H](c5nc(C#N)cs5)C5CCC5)c4)c(=O)n3c2)C1` (single isomer, unassigned) [Compound 370], the IC50 under setting [1] is more than 10 µM. In the case of `Cc1sc(C#N)nc1[C@H](c1cccc(-n2cc3c(C(F)(F)F)cc(CN4CCC[C@H](C)C4)cn3c2=O)c1)C1CCC1` (single isomer, unassigned) [Compound 371], the IC50 under setting [1] was more than 10 µM. The same measure, in the same setting: in the case of `C[C@H]1CCCN(Cc2cc(C(F)(F)F)c3cn(-c4cccc([C@@H](c5nc(C#N)cs5)C5CCC5)c4)c(=O)n3c2)C1` (single isomer, unassigned) [Compound 372] it was more than 10 µM. Take `Cc1cnoc1[C@H](c1cccc(-n2cc3c(C(F)(F)F)cc(CN4CCC[C@H](C)C4)cn3c2=O)c1)C1CCC1` (single isomer, unassigned) [Compound 383]: the IC50 under setting [2] is more than 10 µM. `Cc1cnoc1[C@@H](c1cccc(-n2cc3c(C(F)(F)F)cc(CN4CCC[C@H](C)C4)cn3c2=O)c1)C1CCC1` (single isomer, unassigned) [Compound 384]: the IC50 under setting [2] is more than 10 µM. Consider `COCc1nc([C@@H](c2cccc(-n3cc4c(C(F)(F)F)cc(CN5CCC[C@H](C)C5)cn4c3=O)c2)C2CCC2)c(C)s1` (single isomer, unassigned) [Compound 385], for which the IC50 under setting [2] is more than 10 µM.

As for `COCc1nc([C@H](c2cccc(-n3cc4c(C(F)(F)F)cc(CN5CCC[C@H](C)C5)cn4c3=O)c2)C2CCC2)c(C)s1` (single isomer, unassigned) [Compound 386], the IC50 under setting [2] is more than 10 µM. For the compound `COC1CN([C@H](c2cccc(-n3cc4c(C(F)(F)F)cc(CN5CCC[C@H](C)C5)cn4c3=O)c2)c2nncn2C)C1` (single isomer, unassigned) [Compound 387], the IC50 under setting [2] was more than 10 µM.

As for `COC1CN([C@@H](c2cccc(-n3cc4c(C(F)(F)F)cc(CN5CCC[C@H](C)C5)cn4c3=O)c2)c2nncn2C)C1` (single isomer, unassigned) [Compound 388], under setting [2], the IC50 is more than 10 µM. Take `COCc1csc([C@@H](c2cccc(-n3cc4c(C(F)(F)F)cc(CN5CCC[C@H](C)C5)cn4c3=O)c2)C2CCC2)n1` (single isomer, unassigned) [Compound 389]: the IC50 under setting [2] was more than 10 µM. Consider `COCc1csc([C@H](c2cccc(-n3cc4c(C(F)(F)F)cc(CN5CCC[C@H](C)C5)cn4c3=O)c2)C2CCC2)n1` (single isomer, unassigned) [Compound 390], for which the IC50 under setting [2] is more than 10 µM. Turning to `Cc1sc(CO)nc1[C@@H](c1cccc(-n2cc3c(C(F)(F)F)cc(CN4CCC[C@H](C)C4)cn3c2=O)c1)C1CCC1` (single isomer, unassigned) [Compound 391], under setting [2], the IC50 was more than 10 µM. For `Cc1sc(CO)nc1[C@H](c1cccc(-n2cc3c(C(F)(F)F)cc(CN4CCC[C@H](C)C4)cn3c2=O)c1)C1CCC1` (single isomer, unassigned) [Compound 392], the IC50 under setting [2] is more than 10 µM. Consider `COC(=O)N1CCC[C@H](c2cc(C(F)(F)F)c3cn(-c4cccc([C@H](c5nncn5C)C5CCC5)c4)c(=O)n3c2)C1` (single isomer, unassigned) [Compound 393], for which, under setting [2], the IC50 is less than 0.1 µM. In the case of `COC(=O)N1CCC[C@@H](c2cc(C(F)(F)F)c3cn(-c4cccc([C@H](c5nncn5C)C5CCC5)c4)c(=O)n3c2)C1` (single isomer, unassigned) [Compound 394], under setting [2], the IC50 lay in the range of 0.1 to 0.3 µM. `CC(=O)N1CCC[C@H](c2cc(C(F)(F)F)c3cn(-c4cccc([C@H](c5nncn5C)C5CCC5)c4)c(=O)n3c2)C1` (single isomer, unassigned) [Compound 396]: under setting [2], the IC50 lay within 0.1 to 0.3 µM.

`CC(=O)N1CCC[C@@H](c2cc(C(F)(F)F)c3cn(-c4cccc([C@H](c5nncn5C)C5CCC5)c4)c(=O)n3c2)C1` (single isomer, unassigned) [Compound 397]: the IC50 under setting [2] fell in the range of 0.1 to 0.3 µM. For the compound `COCC[C@H](c1cccc(-n2cc3c(C(F)(F)F)cc(CN4CCC[C@H](C)C4)cn3c2=O)c1)c1nncn1C` (single isomer, unassigned) [Compound 399], the IC50 under setting [2] was less than 0.1 µM. Regarding `COCC[C@@H](c1cccc(-n2cc3c(C(F)(F)F)cc(CN4CCC[C@H](C)C4)cn3c2=O)c1)c1nncn1C` (single isomer, unassigned) [Compound 400], the IC50 under setting [2] is more than 10 µM. Consider `C[C@H]1CCCN(Cc2cc(C(F)(F)F)c3cn(-c4cccc([C@@H](CC5(C#N)CC5)c5nncn5C)c4)c(=O)n3c2)C1` (single isomer, unassigned) [Compound 405], for which the IC50 under setting [2] was more than 10 µM. In the case of `C[C@H]1CCCN(Cc2cc(C(F)(F)F)c3cn(-c4cccc([C@H](c5nncn5C)N5CC(O)C5)c4)c(=O)n3c2)C1` (single isomer, unassigned) [Compound 406], the IC50 under setting [2] is 0.1 to 0.3 µM. For the compound `C[C@H]1CCCN(Cc2cc(C(F)(F)F)c3cn(-c4cccc([C@@H](c5nncn5C)N5CC(O)C5)c4)c(=O)n3c2)C1` (single isomer, unassigned) [Compound 407], the IC50 under setting [2] is more than 10 µM. On the same count and under the same terms, the same measure for `COC(=O)N1CC[C@H](c2cc(C(F)(F)F)c3cn(-c4cccc([C@H](c5nncn5C)C5CCC5)c4)c(=O)n3c2)C1` (single isomer, unassigned) [Compound 408]: less than 0.1 µM.
